Results published in patent US20200325505A1, “FILAMENTOUS FUNGI CAPABLE OF PRODUCING VERY LONG CHAIN FATTY ACIDS” (UT-Battelle, LLC, priority 2019, published 2020).
Like-named read-outs stand apart in the source and are kept apart here.

Tested on: Mortierella elongata AG77
Assay: Carbon source utilisation in Biolog 96-well plates, formazan formation after tetrazolium addition
Type: cell-based
Conditions: for Metabolized: Metabolized = more formazan formation than a control containing no carbon source, observed visually at 2 h, 24 h, 148 h; for Carbon sources that Mortierella elongata AG77 can metabolize: summary of Table 3
Method: Two 300 mL volumes of growth medium comprising 1 g/L KH2PO4, 1 g/L MgSO4 7H2O, 0.1 g/L CaCl2, 0.02 g/L FeNaEDTA, 0.1 g/L NaCl, and either 1 g/L NH4NO3 or 20 g/L sucrose were prepared. Acidity was adjusted to 5.5 using NaOH and volumes of growth medium were autoclaved 30 min at 121° C. to sterilize. Aliquots of 200 μL of carbon-free medium or nitrogen-free medium were pipetted into each well of a set of 96-well plates previously prepared with lyophilized putative carbon or nitrogen sources (Biolog Inc., Hayward, Calif.). Inocula were prepared by perforating a culture of Mortierella elongata AG77 grown on 20 g/L potato dextrose agar with a 3 mm diameter cork borer and separating the surface mycelial mat from the solid growth medium using tweezers. Each well was inoculated with one inoculum. Cultures were incubated at 21° C. for 24 hours to allow metabolic changes to stabilize, and then 100 μL of 3 g/L tetrazolium chloride in water was added to each well. Formazan formation was observed visually at 2 h, 24 h, and 148 h.
Conclusions were based on rate and intensity of formazan formation using the 3-4,5-dimethylthiazol-2-yl)-2,5-diphenyltetrazolium bromide (MTT) assay. “Metabolized” indicates more formazan formation than a control containing no carbon source, and “Toxic” indicates less formazan formation than a control containing no carbon source. “Metabolized” and “Toxic” assignments are mutually exclusive. In this example, a compound may be “Metabolized” or “Toxic,” but not both.

[1] = compound as carbon source, Toxic = less formazan formation than a control containing no carbon source

Compound	Toxic	Metabolized (compound as carbon source)	Toxic [1]	Carbon sources that Mortierella elongata AG77 can metabolize
O=CC[C@H](O)[C@H](O)CO [2-Deoxy-D-Ribose]	no	no	–	–
OC[C@H]1O[C@@H](Oc2ccc(O)cc2)[C@H](O)[C@@H](O)[C@@H]1O [Arbutin]	–	no	no	–
CC(O)C(C)O (centres unmarked) [2,3-Butanediol]	no	no	–	–
O=C1O[C@@H]([C@H](O)CO)[C@H](O)[C@H]1O [D-Galactonic Acid-γ-Lactone]	–	yes	no	can metabolize
O=C(O)CCCCCCCCC(=O)O [Sebacic Acid]	no	no	–	–
COC1OC(CO)C(O)C(O)C1O [α-Methyl-D-Galactoside]	–	yes	no	can metabolize
O=C(O)[C@H](O)[C@@H](O)[C@H](O)[C@H](O)CO [D-Gluconic Acid]	–	no	no	–
O=C(O)c1ccc(O)cc1 [4-Hydroxy Benzoic Acid]	no	no	–	–
O=C(CO)[C@@H](O)[C@H](O)[C@H](O)COP(=O)(O)O [D-Fructose-6-Phosphate]	–	yes	no	can metabolize
CCC(C)N (centres unmarked) [Sec-Butylamine]	–	no	no	–
O=C(O)CCC(=O)O [Succinic Acid]	no	no	–	–
O=C[C@@H](O)[C@H](O)[C@@H](O)[C@@H](O)CO [L-Glucose]	no	no	–	–
OC[C@@H](O)[C@@H](O[C@H]1O[C@H](CO)[C@@H](O)[C@H](O)[C@H]1O)[C@H](O)[C@@H](O)CO [Maltitol]	–	no	no	–
CO[C@@H]1O[C@H](C(=O)O)[C@@H](O)[C@H](O)[C@H]1O [β-Methyl-D-Glucuronic Acid]	–	no	no	–
OC[C@@H](O)[C@@H](O)[C@@H](O)CO [Adonitol]	no	no	–	–
CCCC(=O)C(=O)O [α-Keto-Valeric Acid]	–	no	no	–
O=C1O[C@H](CO)[C@@H](O)[C@H]1O [D-Ribono-1,4-Lactone]	–	no	no	–
O=C(O)CC(O)C(=O)O (racemic) [D,L-Malic Acid]	–	no	no	–
O=C[C@H](O)[C@@H](O)[C@H](O)CO [D-Xylose]	no	no	–	–
O=C(CO)[C@@H](O)[C@H](O)[C@@H](O)C(=O)O [5-Keto-D-Gluconic Acid]	–	no	no	–
OC[C@H]1O[C@@H]2O[C@H]3[C@H](O)[C@@H](O)[C@@H](O[C@H]4[C@H](O)[C@@H](O)[C@@H](O[C@H]5[C@H](O)[C@@H](O)[C@@H](O[C@H]6[C@H](O)[C@@H](O)[C@@H](O[C@H]7[C@H](O)[C@@H](O)[C@@H](O[C@H]8[C@H](O)[C@@H](O)[C@@H](O[C@H]1[C@H](O)[C@H]2O)O[C@@H]8CO)O[C@@H]7CO)O[C@@H]6CO)O[C@@H]5CO)O[C@@H]4CO)O[C@@H]3CO [β-Cyclodextrin]	–	no	no	–
Tween 20	–	yes	no	can metabolize
C[C@H](O)C(=O)O [L-Lactic Acid]	–	yes	no	can metabolize
OC[C@H]1O[C@H](OC[C@H]2OC(O)(CO)[C@@H](O)[C@@H]2O)[C@H](O)[C@@H](O)[C@@H]1O (some centres unmarked) [Palatinose]	–	yes	no	can metabolize
OC[C@@H](O)[C@@H](O[C@@H]1O[C@H](CO)[C@H](O)[C@H](O)[C@H]1O)[C@H](O)[C@@H](O)CO [Lactitol]	no	no	–	–

Compound	Toxic	Metabolized (compound as carbon source)	Toxic [1]	Carbon sources that Mortierella elongata AG77 can metabolize
Chondroitin Sulfate C	no	–	–	–
O=C[C@H](O)[C@@H](O)[C@@H](O)[C@H](O)CO [D-Galactose]	no	no	–	–
OCc1ccccc1O[C@@H]1O[C@H](CO)[C@@H](O)[C@H](O)[C@H]1O [Salicin]	no	yes	–	can metabolize
O=C(O)[C@H](O)[C@@H](O)C(=O)O [L-Tartaric Acid]	–	no	–	–
O=C(CO)[C@@H](O)[C@H](O)[C@H](O)CO [D-Fructose]	no	no	–	–
OCC(O)CO [Glycerol]	no	yes	–	can metabolize
OC[C@H]1O[C@@H](O[C@H]2[C@H](O)[C@@H](O)[C@H](O)O[C@@H]2CO)[C@H](O)[C@@H](O)[C@@H]1O [D-Cellobiose]	–	no	–	–
O=CC(=O)O [Glyoxylic Acid]	–	no	–	–
CO[C@@H]1O[C@H](CO)[C@@H](O)[C@H](O)[C@H]1O [β-Methyl-D-Galactoside]	–	yes	no	can metabolize
O=C(CO)[C@@H](O[C@H]1O[C@H](CO)[C@@H](O)[C@H](O)[C@H]1O)[C@H](O)[C@H](O)CO [Turanose]	–	no	no	–
C/C=C/C=C/C(=O)O [Sorbic Acid]	no	no	–	–
Glycogen	no	–	–	–
CCCCCCCCCC(=O)O [Capric Acid]	no	no	–	–
CC(=O)C(C)=O [2,3-Butanedione]	–	no	no	–
Gelatin	no	–	–	–
Pectin	no	–	–	–
O=C(O)C(=O)O [Oxalic Acid]	–	no	–	–
O[C@H]1[C@H](O)[C@@H](O)[C@H](O)[C@@H](O)[C@H]1O [m-Inositol]	–	yes	no	can metabolize
O=C(O)Cc1cccc(O)c1 [m-Hydroxy Phenyl Acetic Acid]	–	no	no	–
O=C[C@@H](O)[C@H](O[C@@H]1O[C@H](CO)[C@H](O)[C@H](O)[C@H]1O)[C@H](O)CO [3-0-β-D-Galacto-pyranosyl-D-Arabinose]	–	no	no	–
OC[C@H]1O[C@@](CO)(O[C@H]2O[C@H](CO)[C@@H](O)[C@H](O)[C@H]2O)[C@@H](O[C@H]2O[C@H](CO)[C@@H](O)[C@H](O)[C@H]2O)[C@@H]1O [D-Melezitose]	–	no	no	–
COC(=O)C(C)=O [Methyl Pyruvate]	–	yes	no	can metabolize
OC[C@H]1O[C@H](OC[C@H]2O[C@H](OC[C@H]3O[C@H](O[C@]4(CO)O[C@H](CO)[C@@H](O)[C@@H]4O)[C@H](O)[C@@H](O)[C@@H]3O)[C@H](O)[C@@H](O)[C@H]2O)[C@H](O)[C@@H](O)[C@H]1O [Stachyose]	–	no	no	–
OC[C@@H](O)C(O)[C@H](O)CO [D-Arabitol]	–	no	no	–
